Results from patent US20230105108A1, “COMPOUNDS FOR THE TREATMENT OF BACTERIAL INFECTIONS AND POTENTIATION OF ANTIBIOTICS” (GEORGIA STATE UNIVERSITY RESEARCH FOUNDATION, INC., priority 2019, published 2023).
Where a name gives a salt, the structure may show the parent alone.

Assays:
Format in all cases: cell-based
[1] = system: NDM-1 expressing E. coli strain; test: microbe, parasite or virus in culture; conditions: Escherichia coli; NDM-1 expressing E. coli; read-out: MIC of MD-124
[2] = system: mcr-1 over-expressing E. coli strains; test: microbe, parasite or virus in culture
K. pneumoniae (43816) = test: MIC, sensitization fold and FIC index on K. pneumoniae; conditions: Klebsiella pneumoniae; K. pneumoniae; read-out: MIC of MD-124
E. coli = test: Bacterial resistance frequency study
Description: Bacterial resistance frequency study: E. coli was grown overnight in Mueller Hinton II cation-adjusted broth medium and concentrated to ˜5×10^9 CFUs/ml in Mueller Hinton II cation-adjusted broth. […] Then the plates were incubated at 37° C. for 48 h. Then the colonies formed on the plate were recorded and resistant frequency was calculated.

E. coli (ATCC 25922) = test: Antibiotic uptake in the presence and absence of MD-100 (HPLC); conditions: E. coli lysate, presence vs absence of 25 μg/ml MD-100
Description: Direct comparison of the antibiotic uptake in the presence and absence of MD-100 through HPLC study. E. coli (ATCC 25922) was cultured in Mueller Hinton II cation-adjusted broth for overnight at 37° C. to reach a density of OD600 of 0.8 to 1.0. To 20 ml fresh Mueller Hinton II cation-adjusted broth was added 50 μl E. coli stock, 200 μl 5 mg/ml O—CH3 novobiocin and 100 μl 10 mM MD-100. In the other group, the same amount of E. coli stock, O—CH3 novobiocin was used in the absence of MD-100. Then E. coli was incubated for 20 h at 37° C. with continuous shaking of 200 rpm. After, the E. coli suspension was centrifuged at 3000 g for 10 min and the culture media was removed to obtain bacteria pallet. The pallets from the two groups was re-suspended in PBS to reach the same OD600 of 2.0. To this E. coli suspension was spiked with 10 μM internal standard. 1 ml E. coli from each group in PBS was lysed by sonication on ice for 15 min, followed by adding 2 ml MeOH, the mixture was then centrifuged at 3000 g for 5 min and the supernatant was analyzed by HPLC. 20 μl of each sample was injected into Shimadzu Prominence UFLC (column: Waters C18, […], 4.6×100 mm, injection loop volume: 20 μl). The mobile phase was acetonitrile (ACN)/H2O (with 0.05% trifluoroacetic acid in the aqueous) with ratios defined as: 20%˜55% ACN, 0˜10 min; 55%˜65% ACN, 10˜20 min; 65%˜20% ACN, 20˜25 min. […]

| Compound | MIC [1] | MIC ([2]; Escherichia coli, mcr-1 over-expression E. coli, read-out: MIC of MD-124) | MIC of Rif with 3 μg/ml MD-124 ([2]; strain mcr-1 A) | Sensitization fold with 3 μg/ml MD-124 ([2]; strain mcr-1 A, rifampicin, dihydrochloride) | MIC of Rif with 3 μg/ml MD-124 ([2]; strain mcr-1 B) | MIC of Rif with 5 μg/ml MD-124 ([2]; strain mcr-1 B) | Sensitization fold with 3 μg/ml MD-124 ([2]; strain mcr-1 B, rifampicin) | Sensitization fold with 5 μg/ml MD-124 ([2]; strain mcr-1 B, rifampicin) | MIC (K. pneumoniae (43816)) | resistant frequency towards MD-124 (E. coli; 10 μg/ml MD-124, 2.7×10^10 CFUs tested) | lower resistance frequency towards MD-124/antibiotic combination than the antibiotic itself (E. coli; 10 μg/ml MD-124, antibiotic 2 to 7-fold of MIC) | relative intracellular concentration of O-methyl novobiocin (E. coli (ATCC 25922)) |
| --- | --- | --- | --- | --- | --- | --- | --- | --- | --- | --- | --- | --- |
| N=C(N)c1ccc(COc2cc(OCc3ccc(C(=N)N)cc3)cc(C(F)(F)F)c2)cc1 [MD-124, 4,4′-(((5-(trifluoromethyl)-1,3-phenylene)bis(oxy))bis(methylene)) dibenzimidamide dihydrochloride] | 50 µg/mL | 12.5 µg/mL | 0.32 | 16 fold | 1.25 | 0.16 | 4 fold | 32 fold | 25 µg/mL | < 3.7×10^−11 | 2 to 3 orders of magnitude | – |
| Cc1cc(COc2ccc(C(=N)N)cc2)cc(COc2ccc(C(=N)N)cc2)c1 [MD-100, 4,4′-(((5-methyl-1,3-phenylene)bis(methylene))bis(oxy))dibenzimidamide dihydrochloride] | – | – | – | – | – | – | – | – | – | – | – | greatly increased |
